{
  "source": "patent US10906904B2",
  "about": "“ADO-resistant cysteamine analogs and uses thereof” (HORIZON ORPHAN LLC, priority 2015, dated 2021)",
  "key": {"[1]": {"assay": "Cystine reactivity assay", "conditions": "30° C., percentage of 3 mM cysteamine", "experimental": "Cystine reactivity was assessed by incubating 3 mM test compound with 100 nM BODIPY® FL L-Cystine (Life Tech.) at 30° C., pH 7.4 in phosphate buffer. […] Compound cystine reactivity was expressed as a percentage of that of 3 mM cysteamine.\nUnder resting conditions, the inherent fluorescence of BODIPY® FL L-cystine was very low due to the spatial proximity of the two BODIPY molecules causing quenching. Under chemical reaction (disruption of the S—S bond), the spatial distance was increased, the quenching lost, and measured fluorescence increased. Time (minutes) vs. fluorescence (relative fluorescence units—RFU) was plotted and linear regression analysis was performed to generate a slope value corresponding to the reaction rate in RFU/min and an R2 value."}, "[2]": {"target": "T1, human recombinant ADO (Homo sapiens, UniProt Q96SZ5)", "T1 sequence (Q96SZ5 1-270)": "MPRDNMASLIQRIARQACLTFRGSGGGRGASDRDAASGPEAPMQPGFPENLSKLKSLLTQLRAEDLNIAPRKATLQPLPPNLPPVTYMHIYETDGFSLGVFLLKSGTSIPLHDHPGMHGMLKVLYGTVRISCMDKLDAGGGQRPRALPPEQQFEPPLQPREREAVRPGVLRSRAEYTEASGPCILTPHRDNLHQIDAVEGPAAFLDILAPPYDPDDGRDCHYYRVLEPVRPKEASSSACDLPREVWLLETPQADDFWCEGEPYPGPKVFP", "assay_type": "in vitro ADME", "experimental": "The rate of ADO metabolism was determined by incubating 15 mM test compound with 60 μg/ml human recombinant ADO and 20 nM MitoXpress® O2-sensitive fluorescent probe (Luxcel) at 37° C. in assay buffer/salt in a sealed assay chamber. The initial rate of fluorescence (excitation λ380 nm and emission λ650 nm) increase was used to measure ADO-dependent oxygen depletion activity. The ability of ADO to metabolize compounds and concomitantly consume oxygen was expressed relative to that of 15 mM cysteamine."}, "[3]": {"tested_on": "cystinotic human fibroblasts", "assay": "Cystine depletion assay", "assay_type": "cell-based", "conditions": "for Emax: Homo sapiens, Fibroblast, 1 h", "experimental": "The ability of test compounds to deplete cystine from cystinotic human fibroblasts (Coriell) was determined by incubating compounds with cells for 60 min at 37° C., 95% (v/v) air/5% (v/v) CO2 in Minimal Essential Media Eagle. Treated cell samples were subsequently harvested, then homogenized to ensure plasma and lysosomal membrane disruption. Protein was removed by acid precipitation and cystine in the supernatant measured using LC-MS/MS and HILIC chromatography. Protein levels were determined and cystine levels reported as nM per mg/ml protein. Cystine levels after test compound treatment were expressed as a percentage of that of untreated control cells.\nCompounds were assayed at a concentration of 50 μM or 100 μM according to the general methods described above.\nCystine depletion levels for the compounds are expressed in Table 4 as a percent relative to the cystine depletion achieved by cysteamine (c.f. cysteamine 100%) at a similar concentration.\nCystine depletion levels for each of the compounds in Table 5 are expressed as a percent relative to the cystine depletion achieved by cysteamine (c.f. cysteamine 100%) at a similar concentration."}, "[4]": {"assay": "Dimethyl sulfide (DMS) detection in rat whole blood following oral compound administration", "assay_type": "in vivo", "conditions": "rat, in vivo, po, 150 mg/kg", "experimental": "Male Sprague Dawley (SD) rats (200-250 g) were housed in cages under a 12 hour light/dark cycle with free access to food and water. Temperature and humidity were controlled according to UK Home Office regulations. For oral (po) administration, test compounds were formulated in water at a concentration of 30 mg/mL, to provide a dose of 150 mg/kg when administered orally in a 5 mL/kg dosing volume. Following compound or water (vehicle) administration to rats (n=15 per compound), terminal blood samples (>5 mL) were taken by cardiac puncture under CO2 at defined time-points post oral dosing (pre-dose, 0.25 hour, 0.5 hour, 1 hour and 2 hour). Blood was placed in sealed heparinized Eppendorf tubes on wet ice and stored at 4° C. prior to analyzing DMS levels by gas chromatography (GC).\nFor each sample of rat blood, 1 mL was added to an evacuated 20 mL GC-Headspace vial containing tetrahydrofuran (THF) internal standard. Headspace vials were sealed with a crimp cap and septum (to prevent the vaporization of volatile sulfur compounds into the open air) and thoroughly vortex mixed. All samples were processed using gas chromatography to measure DMS levels. In short, sulfur containing compounds were thermally liberated into the gas carrier stream and injected (1 μL) into the gas chromatography column (30 m×0.32 mm DB-624 1.8 μm). Under these conditions, the retention time for dimethyl sulfide (DMS) and THF internal standard were approximately 1.83 minutes and 3.82 minutes respectively.\nFor each analyzed blood sample, the ratio of DMS peak area to THF peak area was calculated. For the DMS calibration curve and assay linearity checks, this ratio was graphically plotted against the concentration of reference DMS standards (blank, 60 nM, 180 nM, 360 nM, 600 nM, 1200 nM, 1800 nM and 3000 nM). The concentration of DMS in each blood sample was calculated from the equation produced by this plot by linear regression analysis. […]."}, "[5]": {"tested_on": "St-HdhQ^111/111 cells", "assay": "Glutamate-induced neuronal excitotoxicity assay", "assay_type": "cell-based", "conditions": "6 mM L-glutamate 24 hours, % of effect of 100 μM cysteamine; for viability at 10 µM / viability at 100 µM: STHdhQ111; for viability at 10 µM: read-out: HdhQ^111/111 cell % survival (mean ± STD) Test Conc. 10 μM; for viability at 100 µM: read-out: HdhQ^111/111 cell % survival (mean ± STD) Test Conc. 100 μM", "experimental": "The ability of test compounds to inhibit glutamate-induced excitotoxicity (neuroprotection) in St-HdhQ^111/111 cells was determined by incubating compounds with cells for 60 min at 33° C., 95% (v:v) air/5% (v:v) CO2 in Dulbecco's Modified Eagle Media. Following this, excitotoxicity was induced by the addition of 6 mM L-glutamate for 24 hours. Cell viability was assessed by measuring ATP levels using a luminescent-based CellTitre Glo assay (Promega). Compound neuroprotection (% cell survival) was expressed as a % of the effect recorded with 100 μM cysteamine (denoted as 100% cell survival)."}, "[6]": {"assay": "Cystine reactivity assay", "conditions": "Table 4"}, "[7]": {"assay": "Rodent pharmacokinetic assay (mouse)", "conditions": "plasma, 10 mg", "procedure": "Pharmacokinetic parameters of a test compound in a rodent species (mouse and/or rat) were determined by administering a test compound at 2 and 10 mg free base equivalents per kg via the intravenous and oral gavage route to groups of three animals per route.\nBlood samples were taken at various times after administration, plasma prepared, and submitted to analysis for parent drug using a qualified LC-MS-MS assay. Pharmacokinetics parameters derived from the plasma analytical data were determined using non-compartmental analysis."}, "[8]": {"conditions": "Table 4, relative to cystine depletion by cysteamine (100%) at a similar concentration, read-out: Cystine Depletion (%)"}, "[9]": {"conditions": "Table 4, relative to cystine depletion by cysteamine (100%) at a similar concentration"}},
  "note": "Read-outs that look alike come from different tables or passages of the source.",
  "data": [
    {"smiles": "CC1(S)CCNCC1", "note": "[Compound 42341]", "values": [
      {"measurement": "Cystine Reactivity Assay (30° C.) (%) Mean Value", "setting": "[1]; Table 4", "result": "<50", "unit": "%"},
      {"measurement": "Cystine Reactivity Assay (30° C.) (%) Mean Value", "setting": "[1]; Table 5", "result": "<50", "unit": "%"},
      {"measurement": "ADO Metabolism Assay (%) Mean Value", "setting": "[2]; human, 15 mM", "result": "<25", "unit": "%"},
      {"measurement": "Emax", "setting": "[3]; [8]", "result": 81, "unit": "%"},
      {"measurement": "Emax", "setting": "[3]; Table 5, relative to cystine depletion by cysteamine (100%) at a similar concentration, read-out: Cystine Depletion (%) Mean Value", "result": 83, "unit": "%"},
      {"measurement": "Mean DMS levels (nM) ± STD, Time 0.5 hr", "setting": "[4]; male, Sprague Dawley, 0.5 h", "result": "<60", "unit": "nM"},
      {"measurement": "Mean DMS levels (nM) ± STD, Time 1 hr", "setting": "[4]; male, Sprague Dawley, 1 h", "result": "<60", "unit": "nM"},
      {"measurement": "Mean DMS levels (nM) ± STD, Time 2 hr", "setting": "[4]; male, Sprague Dawley, 2 h", "result": "<60", "unit": "nM"},
      {"measurement": "viability at 10 µM", "setting": "[5]; 10 μM", "result": "1 ± 10", "unit": "%"},
      {"measurement": "viability at 100 µM", "setting": "[5]; 100 μM", "result": "55 ± 21", "unit": "%"}
    ]},
    {"smiles": "SCCN1CCCC1", "note": "[Compound 17518]", "values": [
      {"measurement": "ADO Metabolism Assay (%) Mean Value", "setting": "[2]; Table 4, relative to 15 mM cysteamine", "result": "<25", "unit": "%"},
      {"measurement": "Emax", "setting": "[3]; [8]", "result": 99, "unit": "%"},
      {"measurement": "Cystine Reactivity Assay (RT) (RFU) Mean Value", "setting": "[6]", "result": ">9000", "unit": "RFU"}
    ]},
    {"smiles": "SC1CCNCC1", "note": "[Compound 41188]", "values": [
      {"measurement": "Cystine Reactivity Assay (30° C.) (%) Mean Value", "setting": "[1]; Table 4", "result": "59-90%"},
      {"measurement": "ADO Metabolism Assay (%) Mean Value", "setting": "[2]; human, 15 mM", "result": "<25", "unit": "%"},
      {"measurement": "Emax", "setting": "[3]; [8]", "result": 87, "unit": "%"},
      {"measurement": "Mean DMS levels (nM) ± STD, Time 1 hr", "setting": "[4]; male, Sprague Dawley, 1 h", "result": "<60", "unit": "nM"},
      {"measurement": "Mean DMS levels (nM) ± STD, Time 2 hr", "setting": "[4]; male, Sprague Dawley, 2 h", "result": "<60", "unit": "nM"},
      {"measurement": "viability at 10 µM", "setting": "[5]; 10 μM", "result": "20 ± 6", "unit": "%"},
      {"measurement": "viability at 100 µM", "setting": "[5]; 100 μM", "result": "105 ± 11", "unit": "%"}
    ]},
    {"smiles": "SC1CNC1", "note": "[Compound 41446]", "values": [
      {"measurement": "Cystine Reactivity Assay (30° C.) (%) Mean Value", "setting": "[1]; Table 5", "result": ">90", "unit": "%"},
      {"measurement": "Cystine Depletion (%)", "setting": "[3]; [9]", "result": 82, "unit": "%"},
      {"measurement": "Cystine Depletion (%) Mean Value", "setting": "[3]; Table 5, relative to cystine depletion by cysteamine (100%) at a similar concentration", "result": 82, "unit": "%"},
      {"measurement": "Mean DMS levels (nM) ± STD, Time 1 hr", "setting": "[4]", "result": "<60", "unit": "nM"},
      {"measurement": "Mean DMS levels (nM) ± STD, Time 2 hr", "setting": "[4]", "result": "<60", "unit": "nM"},
      {"measurement": "HdhQ^111/111 cell % survival (mean ± STD) Test Conc. 10 μM", "setting": "[5]; 10 μM", "result": "6 ± 9", "unit": "%"},
      {"measurement": "HdhQ^111/111 cell % survival (mean ± STD) Test Conc. 100 μM", "setting": "[5]; 100 μM", "result": "101 ± 11", "unit": "%"}
    ]},
    {"smiles": "CC(C)(S)CN", "note": "[Compound 18782]", "values": [
      {"measurement": "ADO Metabolism Assay (%) Mean Value", "setting": "[2]; human, 15 mM", "result": "<25", "unit": "%"},
      {"measurement": "Emax", "setting": "[3]; [8]", "result": 32, "unit": "%"},
      {"measurement": "Mean DMS levels (nM) ± STD, Time 1 hr", "setting": "[4]; male, Sprague Dawley, 1 h", "result": "<60", "unit": "nM"},
      {"measurement": "Mean DMS levels (nM) ± STD, Time 2 hr", "setting": "[4]; male, Sprague Dawley, 2 h", "result": "<60", "unit": "nM"},
      {"measurement": "Cystine Reactivity Assay (RT) (RFU) Mean Value", "setting": "[6]", "result": "<4000", "unit": "RFU"}
    ]},
    {"smiles": "SCCN1CCOCC1", "note": "[Compound 17328]", "values": [
      {"measurement": "ADO Metabolism Assay (%) Mean Value", "setting": "[2]; human, 15 mM", "result": "<25", "unit": "%"},
      {"measurement": "Emax", "setting": "[3]; [8]", "result": 13, "unit": "%"},
      {"measurement": "Cystine Reactivity Assay (RT) (RFU) Mean Value", "setting": "[6]", "result": "<4000", "unit": "RFU"}
    ]},
    {"smiles": "CC(N)CS", "note": "(stereo not shown) [Compound 17515]", "values": [
      {"measurement": "Cystine Depletion (%)", "setting": "[3]; [9]", "result": 97, "unit": "%"},
      {"measurement": "Cystine Reactivity Assay (RT) (RFU) Mean Value", "setting": "[6]", "result": "4000-9000 RFU"}
    ]},
    {"smiles": "SC1CCNCC1", "note": "[Compound 2c]", "values": [
      {"measurement": "metabolism by ADO compared to cysteamine (in words)", "setting": "[2]", "result": "significantly reduced metabolism by ADO compared to cysteamine"},
      {"measurement": "ADO metabolism", "setting": "[2]; human, 15 mM", "result": 2, "unit": "%"},
      {"measurement": "cystine depletion levels (in words)", "setting": "[3]; compared to cysteamine", "result": "slightly decreased"},
      {"measurement": "Cystine depletion", "setting": "[3]; compound at 50 μM or 100 μM, Tables 1-3", "result": 73, "unit": "%"},
      {"measurement": "half-life", "setting": "[7]", "result": 7.1, "unit": "h"},
      {"measurement": "bioavailability", "setting": "[7]; oral", "result": 74, "unit": "%"}
    ]}
  ]
}
